Experimental findings from PMC2628638, “Catalytic inhibition of topoisomerase II by a novel rationally designed ATP-competitive purine analogue” (BMC Chemical Biology, 2009) are described below.

The term IC50 denotes the midpoint of a concentration-inhibition curve.

What all share (assay type): biochemical
In assay [1] the target is T1, purified human topoisomerase II alpha (Homo sapiens, UniProt P11388).
T1 construct: screened in an ATPase assay using purified full length tagged human topoisomerase II alpha; made in house; host or cells: Sf21 insect cells, baculovirus (pFastBac1)
Briefly: DNA decatenation assay with purified enzyme (kDNA). The note with it: catenated kDNA, read-out: mean IC50, inhibition of DNA decatenation. As for the experimental part:
Reagents for the assay were purchased from TopoGEN (catalog number 1001–1, TopoGEN, Inc., Port Orange, FL). Topoisomerase II was extracted according to the manufacturer's instructions from nuclei of HL-60 cells (ATCC; American Type Culture Collection, Manassas, Virginia, USA) and contained both isoforms as assessed by Western blotting. Calculation of specific topoisomerase II decatenation activity was based on complete decatenation of a given amount of catenated input DNA (100 ng kDNA) by a defined amount of nuclear extract containing the alpha and beta isoforms or of a defined amount of purified enzyme in a particular amount of time. The topoisomerase II activity from nuclei decatenated 0.07 ng catenated kDNA · min^-1 · ng^-1 extract. Purified topoisomerase II alpha (see above) decatenated 0.13 ng catenated kDNA · min^-1 · ng^-1. Vehicle (DMSO) or drug substance at concentrations to yield the desired end concentrations were added and samples were preincubated for 5 minutes at 37°C and 400 rpm in an Eppendorf thermomixer. Reactions were started by adding ATP (to 450 μM final concentration) to each sample and incubation was continued for 20 minutes. […] Gels were analyzed under a UV transilluminator and decatenated kDNA products were quantified using AlphaEaseFC (FluorChem 8900) image analysis software version 3.2.3 (Alpha Innotech, San Leandro, CA).

In assay [2] the target is Axl (Homo sapiens, UniProt P30530). In words: Radiometric filter binding kinase assay. An excerpt: (§1) Based on homology structural models of the target, a purine scaffold was designed interactively using the Macromodel modeling software. The designed purine scaffold was subsequently used as a substructure query to search the Novartis compound collection. Around 50 molecules were retrieved in this manner and screened in an ATPase assay using purified full length tagged human topoisomerase II alpha. […] Subsequently, we carried out kinetic analysis with QAP 1 in order to corroborate the mode of action. […] The data were analyzed by non-linear regression analysis using the equations corresponding to competitive, uncompetitive, and mixed inhibition (see Methods) and a statistical analysis (F-test; p ≤ 0.05) was carried out to identify the best model. […] A linearized representation (Eady-Hofstee) of one of these experiments is depicted in Figure 1D. To confirm the mode of action of QAP 1, inhibition studies were also carried out in the presence of different concentration of the inhibitor at different ATP concentrations and the IC50 values were determined. […] Next, QAP 1 was tested against a panel of kinases in a radiometric assay. With the exception of subtle inhibition of the Ret and c-Src tyrosine kinases no effect of the compound was observed on other kinases in the panel, even at the highest concentration tested (Table 1). Thus, QAP 1 is a relatively potent inhibitor of topoisomerase II ATPase function with fairly good selectivity over various serine/threonine/tyrosine protein kinases. To test if QAP 1 inhibited topoisomerase II DNA strand passage activity, nuclear extracts of HL-60 leukemic cells were incubated with catenated kDNA in the presence of increasing concentrations of QAP 1.
Sequence of Axl (P30530 26-894, species assumed): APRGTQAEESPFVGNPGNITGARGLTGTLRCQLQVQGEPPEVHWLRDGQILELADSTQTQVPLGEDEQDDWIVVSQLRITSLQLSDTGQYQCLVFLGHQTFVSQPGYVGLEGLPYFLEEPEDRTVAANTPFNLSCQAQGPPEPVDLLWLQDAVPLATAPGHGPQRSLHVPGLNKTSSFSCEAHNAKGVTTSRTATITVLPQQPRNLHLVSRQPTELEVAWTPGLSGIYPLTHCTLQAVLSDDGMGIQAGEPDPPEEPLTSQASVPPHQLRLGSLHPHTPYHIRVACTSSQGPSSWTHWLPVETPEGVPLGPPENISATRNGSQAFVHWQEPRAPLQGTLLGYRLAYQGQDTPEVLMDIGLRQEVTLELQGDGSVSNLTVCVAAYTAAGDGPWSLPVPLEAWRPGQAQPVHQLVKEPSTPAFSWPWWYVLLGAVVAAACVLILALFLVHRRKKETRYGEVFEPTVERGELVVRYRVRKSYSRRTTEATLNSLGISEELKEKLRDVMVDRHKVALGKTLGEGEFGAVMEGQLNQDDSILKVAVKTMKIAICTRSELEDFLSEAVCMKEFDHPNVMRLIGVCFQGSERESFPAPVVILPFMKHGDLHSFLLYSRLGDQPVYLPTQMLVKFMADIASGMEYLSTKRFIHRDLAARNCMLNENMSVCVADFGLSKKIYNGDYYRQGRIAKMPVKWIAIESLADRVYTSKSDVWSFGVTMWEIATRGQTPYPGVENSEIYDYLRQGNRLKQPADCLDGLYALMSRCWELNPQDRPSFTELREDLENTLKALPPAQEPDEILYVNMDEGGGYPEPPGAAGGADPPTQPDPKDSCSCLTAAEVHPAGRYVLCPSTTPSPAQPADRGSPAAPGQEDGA

The target of assay [3] is EphB4 (Homo sapiens, UniProt P54760). Briefly: Radiometric filter binding kinase assay.
Sequence of EphB4 (P54760 16-987, species assumed): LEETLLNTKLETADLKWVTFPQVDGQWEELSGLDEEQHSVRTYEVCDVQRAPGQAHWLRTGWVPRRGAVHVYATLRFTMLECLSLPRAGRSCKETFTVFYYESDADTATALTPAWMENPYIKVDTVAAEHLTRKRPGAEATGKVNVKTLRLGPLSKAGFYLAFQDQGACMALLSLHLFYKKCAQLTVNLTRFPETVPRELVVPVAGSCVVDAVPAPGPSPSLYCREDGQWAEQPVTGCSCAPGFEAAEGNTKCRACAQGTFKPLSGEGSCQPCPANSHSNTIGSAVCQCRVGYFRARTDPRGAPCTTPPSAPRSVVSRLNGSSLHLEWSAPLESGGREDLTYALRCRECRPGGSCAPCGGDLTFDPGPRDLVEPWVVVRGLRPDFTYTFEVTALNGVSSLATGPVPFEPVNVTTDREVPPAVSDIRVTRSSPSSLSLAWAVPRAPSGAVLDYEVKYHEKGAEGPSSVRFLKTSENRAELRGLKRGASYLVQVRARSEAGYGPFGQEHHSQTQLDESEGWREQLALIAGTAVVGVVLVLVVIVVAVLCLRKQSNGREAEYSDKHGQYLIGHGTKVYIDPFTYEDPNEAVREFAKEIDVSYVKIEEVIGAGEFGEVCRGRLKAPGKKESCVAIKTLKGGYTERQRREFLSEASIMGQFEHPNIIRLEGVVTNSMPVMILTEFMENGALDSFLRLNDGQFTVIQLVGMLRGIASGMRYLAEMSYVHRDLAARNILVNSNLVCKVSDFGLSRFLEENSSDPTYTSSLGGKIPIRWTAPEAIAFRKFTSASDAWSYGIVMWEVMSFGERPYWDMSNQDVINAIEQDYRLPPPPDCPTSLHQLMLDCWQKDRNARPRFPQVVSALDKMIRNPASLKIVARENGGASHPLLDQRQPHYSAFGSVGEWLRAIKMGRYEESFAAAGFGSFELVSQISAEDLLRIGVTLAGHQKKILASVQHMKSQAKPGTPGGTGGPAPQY
From the text: as §1

Assay [4] concerns the target FGFR3-K560E. In words: Radiometric filter binding kinase assay.
From the text: as §1

Assay [5] deals with Flt-3 (Homo sapiens, UniProt P36888). Briefly: Radiometric filter binding kinase assay.
Sequence of Flt-3 (P36888 27-993, species assumed): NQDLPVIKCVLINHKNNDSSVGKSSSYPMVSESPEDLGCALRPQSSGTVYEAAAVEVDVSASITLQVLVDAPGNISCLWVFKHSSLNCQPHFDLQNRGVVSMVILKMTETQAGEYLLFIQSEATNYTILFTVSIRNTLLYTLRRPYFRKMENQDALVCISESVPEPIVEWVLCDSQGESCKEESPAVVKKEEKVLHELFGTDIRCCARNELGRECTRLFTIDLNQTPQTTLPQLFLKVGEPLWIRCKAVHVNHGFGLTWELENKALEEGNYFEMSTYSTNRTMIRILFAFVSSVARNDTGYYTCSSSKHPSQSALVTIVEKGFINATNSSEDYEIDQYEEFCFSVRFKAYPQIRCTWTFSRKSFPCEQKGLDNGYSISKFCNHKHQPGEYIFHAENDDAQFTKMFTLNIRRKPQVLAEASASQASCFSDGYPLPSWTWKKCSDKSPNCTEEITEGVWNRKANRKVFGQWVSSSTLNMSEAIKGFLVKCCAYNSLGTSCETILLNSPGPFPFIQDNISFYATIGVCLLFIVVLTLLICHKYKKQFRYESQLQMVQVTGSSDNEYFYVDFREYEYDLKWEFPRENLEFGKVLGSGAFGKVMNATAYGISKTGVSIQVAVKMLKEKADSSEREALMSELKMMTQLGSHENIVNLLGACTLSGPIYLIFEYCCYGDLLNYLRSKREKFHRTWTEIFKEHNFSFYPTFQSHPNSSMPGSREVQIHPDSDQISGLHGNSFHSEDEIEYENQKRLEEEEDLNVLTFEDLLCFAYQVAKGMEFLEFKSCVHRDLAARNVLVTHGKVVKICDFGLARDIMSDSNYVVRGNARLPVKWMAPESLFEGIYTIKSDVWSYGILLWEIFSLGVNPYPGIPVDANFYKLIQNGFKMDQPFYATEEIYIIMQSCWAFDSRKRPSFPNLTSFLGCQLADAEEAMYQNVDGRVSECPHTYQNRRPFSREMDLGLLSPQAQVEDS
From the text: as §1

Assay [6] addresses IGF-1R (Homo sapiens, UniProt P08069). Briefly: Radiometric filter binding kinase assay.
From the text: as §1

The target in assay [7] is KDR (Homo sapiens, UniProt P35968). In words: Radiometric filter binding kinase assay.
Sequence of KDR (P35968 20-1356, species assumed): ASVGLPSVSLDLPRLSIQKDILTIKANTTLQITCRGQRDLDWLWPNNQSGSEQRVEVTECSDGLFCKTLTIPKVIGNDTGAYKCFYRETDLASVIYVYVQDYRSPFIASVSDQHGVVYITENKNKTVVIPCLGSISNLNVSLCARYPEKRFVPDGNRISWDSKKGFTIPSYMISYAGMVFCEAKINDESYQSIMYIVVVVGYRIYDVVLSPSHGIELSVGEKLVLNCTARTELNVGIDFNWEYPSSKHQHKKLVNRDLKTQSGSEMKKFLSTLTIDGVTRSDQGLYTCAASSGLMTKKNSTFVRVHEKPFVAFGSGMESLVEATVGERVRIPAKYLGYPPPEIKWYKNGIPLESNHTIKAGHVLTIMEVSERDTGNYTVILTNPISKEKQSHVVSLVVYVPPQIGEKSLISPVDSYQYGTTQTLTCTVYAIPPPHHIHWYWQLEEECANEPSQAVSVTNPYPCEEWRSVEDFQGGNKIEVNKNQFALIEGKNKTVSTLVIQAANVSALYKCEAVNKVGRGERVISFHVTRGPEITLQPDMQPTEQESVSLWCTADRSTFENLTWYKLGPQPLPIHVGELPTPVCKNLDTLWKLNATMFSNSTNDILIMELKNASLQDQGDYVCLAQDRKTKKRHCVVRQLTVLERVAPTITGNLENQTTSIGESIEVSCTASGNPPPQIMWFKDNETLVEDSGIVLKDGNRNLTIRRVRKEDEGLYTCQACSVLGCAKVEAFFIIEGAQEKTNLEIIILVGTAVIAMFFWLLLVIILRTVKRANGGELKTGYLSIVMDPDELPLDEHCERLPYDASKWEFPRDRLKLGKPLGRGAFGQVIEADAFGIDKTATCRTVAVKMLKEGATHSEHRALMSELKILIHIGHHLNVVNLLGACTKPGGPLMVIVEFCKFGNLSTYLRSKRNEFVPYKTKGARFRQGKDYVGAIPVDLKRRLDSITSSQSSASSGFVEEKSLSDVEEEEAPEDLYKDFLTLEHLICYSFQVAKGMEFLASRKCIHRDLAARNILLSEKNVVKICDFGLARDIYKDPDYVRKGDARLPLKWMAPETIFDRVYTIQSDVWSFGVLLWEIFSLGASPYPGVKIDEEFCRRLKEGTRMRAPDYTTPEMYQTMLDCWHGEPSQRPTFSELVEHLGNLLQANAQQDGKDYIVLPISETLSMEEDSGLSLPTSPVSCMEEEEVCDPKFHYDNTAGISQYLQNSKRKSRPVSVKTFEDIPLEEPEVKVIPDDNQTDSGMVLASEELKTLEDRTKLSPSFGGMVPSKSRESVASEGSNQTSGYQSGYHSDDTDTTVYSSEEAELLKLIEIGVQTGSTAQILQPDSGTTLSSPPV
From the text: as §1

The target of assay [8] is PKB. Briefly: Radiometric filter binding kinase assay.
Sequence of PKB (P31749 whole entry): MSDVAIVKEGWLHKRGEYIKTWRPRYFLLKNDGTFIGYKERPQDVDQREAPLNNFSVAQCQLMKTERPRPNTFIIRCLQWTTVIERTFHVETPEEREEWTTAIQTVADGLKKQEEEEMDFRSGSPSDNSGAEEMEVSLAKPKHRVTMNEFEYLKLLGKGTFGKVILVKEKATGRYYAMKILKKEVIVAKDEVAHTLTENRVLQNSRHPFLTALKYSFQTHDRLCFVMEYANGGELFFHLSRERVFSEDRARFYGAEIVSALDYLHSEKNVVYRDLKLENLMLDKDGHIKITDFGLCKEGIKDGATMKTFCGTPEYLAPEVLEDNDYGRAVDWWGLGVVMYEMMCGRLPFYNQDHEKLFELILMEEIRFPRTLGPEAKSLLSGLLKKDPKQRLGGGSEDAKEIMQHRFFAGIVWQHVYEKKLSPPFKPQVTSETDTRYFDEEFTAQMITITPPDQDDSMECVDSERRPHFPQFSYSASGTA
From the text: as §1

Assay [9] has as its target Ret (Homo sapiens, UniProt P07949). In words: Radiometric filter binding kinase assay. The note with it: mean of two independent experiments ± SD.
From the text: as §1

The target in assay [10] is Tek (Homo sapiens, UniProt Q02763). In words: Radiometric filter binding kinase assay.
From the text: as §1

Assay [11] concerns the target c-Abl (Homo sapiens, UniProt P00519). In words: Radiometric filter binding kinase assay.
From the text: as §1

Assay [12] has as its target c-Abl-T315I (Homo sapiens, UniProt P00519, T315I). In words: Radiometric filter binding kinase assay.
From the text: as §1

Assay [13] has as its target c-Src (Homo sapiens, UniProt P12931). In words: Radiometric filter binding kinase assay. The note with it: mean of two independent experiments ± SD.
From the text: as §1

Each structure is given as a SMILES string. A value given as a limit tells only on which side of the number the result lay.

Sequence of FGFR3-K560E (P22607 397-806 K560E): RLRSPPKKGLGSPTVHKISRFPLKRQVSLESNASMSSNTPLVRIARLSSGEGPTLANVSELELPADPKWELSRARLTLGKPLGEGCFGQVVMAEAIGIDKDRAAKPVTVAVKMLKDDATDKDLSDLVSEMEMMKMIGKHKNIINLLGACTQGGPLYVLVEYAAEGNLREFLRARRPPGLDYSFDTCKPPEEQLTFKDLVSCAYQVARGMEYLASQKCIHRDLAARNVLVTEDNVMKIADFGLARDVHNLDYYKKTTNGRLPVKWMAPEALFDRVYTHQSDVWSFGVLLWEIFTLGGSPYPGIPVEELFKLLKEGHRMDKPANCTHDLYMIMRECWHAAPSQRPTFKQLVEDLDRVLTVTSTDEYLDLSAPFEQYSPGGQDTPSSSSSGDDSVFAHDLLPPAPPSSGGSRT

`CCc1nc2nc(Nc3ccc4nc(OCCN5CCOCC5)ccc4c3)nc(NC(C)(C)C)c2[nH]1` [QAP 1]: the half-inhibitory concentration (IC50) in [1] was 0.66 µM; in assay [2] it was above 10 µM; in assay [3], above 10 µM; in assay [4], above 10 µM; in assay [5], above 10 µM; in assay [6], above 10 µM. Further, the IC50 in assay [7] was above 10 µM; in [8], above 10 µM; in assay [9], 1.35 ± 0.05 µM; in assay [10], above 10 µM; in assay [11] it was above 10 µM; in assay [12] it was above 10 µM. Further, in [13], the half-inhibitory concentration (IC50) is 1.7 ± 0.5 µM.
